Measured values as given in publication PMC12030627, “Radioiodinated Bicyclic RGD Peptide Derivatives for Enhanced Tumor Accumulation” (Pharmaceuticals, 2025).
Where two headings read alike, the source gives them in different places. Starred links: 1 amine or outer side, 2 acyl side, 3 side chain; linkers in the order of their positions; H or OH if unused. Positions of bridges follow the written chain, without caps; N, C: chain ends. Non-standard residues stand in square brackets, D forms with d. Residues, ends and D or L forms follow the SMILES beside them. *: point of attachment. TBMB = c1c(C[*:1])cc(C[*:3])cc1C[*:2]; Palmitoyl = CCCCCCCCCCCCCCCC(=O)*; Benzoyl(3-I) = O=C(c1cccc(I)c1)*; 4Abz = Nc1ccc(C(=O)O)cc1

B1: [^125I]bcRGDpal (peptide)
chain: Palmitoyl-K((125I)3‑iodobenzoyl)PPPSG[4Abz]SGCHPQ[dC]RGD[dC]-NH2
modifications: linker 10-14-18 via TBMB (inferred)
B2: [^125I]bcRGDiba (peptide)
chain: {4‑(p-iodophenyl)butyryl}-K((125I)3‑iodobenzoyl)PPPSG[4Abz]SGCHPQ[dC]RGD[dC]-NH2
modifications: linker 10-14-18 via TBMB (inferred)

Experiments:
[1] = Biodistribution in U-87 MG tumor-bearing mice; assay type: in vivo, BALB/c nu-nu mice; conditions: mouse, total radioactivity, 2 h post-administration, tumor-bearing mice, comparator value, no method or n printed for this probe
Procedure: Animal experiments were performed in compliance with institutional animal care regulations, with the study protocol approved by the Experimental Animal Committee of Osaka Medical and Pharmaceutical University (Approval Numbers: 21–76, 22–76, and 23–76). Four-week-old male BALB/c nu-nu mice (Japan SLC, Shizuoka, Japan) were housed under a 12 h light/12 h dark cycle with free access to food and water. Tumor-bearing mice were established by suspending U-87 MG cells (2 × 10^6 cells/mouse) in PBS(–) and subcutaneously injecting 100 μL of the suspension into the right hind leg. For co-implantation models, A549 cells (2 × 10^6 cells/mouse) were suspended in PBS(–) and inoculated (100 μL) into the left hind leg of the same mice already inoculated with U-87 MG cells. Mice with tumor size approximately 10 mm in diameter, 4–5 weeks after inoculation, were used for biodistribution studies. Animals in which either tumor was not viable were excluded from the experiment.
U-87 MG-bearing mice (n = 42, 8–9 weeks old; 22–27 g) were randomly assigned into groups and administered [^125I]bcRGDpal or [^125I]bcRGDiba via intravenous injection (37 kBq in 100 μL of PBS containing 0.1% Tween 80 (PBS-T80)). At 5 min, 30 min, 1 h, 2 h, 6 h, 12 h, or 24 h post-injection, the mice were euthanized (n = 3 per time point). The heart, kidneys, liver, brain, pancreas, spleen, lung, small intestine, large intestine, muscle, skin, stomach, bone, and tumors were excised. Each organ’s weight and radioactivity were measured by a NaI well-type scintillation counter, and the % ID/g was calculated. To investigate the correlation between integrin expression and radioactivity accumulation, biodistribution at 2 h after administration of [^125I]bcRGDpal or [^125I]bcRGDiba was assessed in A549 and U-87 MG co-implantation mice (n = 5) using the same procedure. Additionally, co-implantation mice were injected with [^125I]bcRGDdimer (37 kBq/100 μL PBS-T80) and euthanized at 30 min, 2 h, and 4 h post-injection (n = 4 per time point), and % ID/g values were calculated as described above. The minimum sample size needed for the biodistribution study in U-87 MG-bearing mice was calculated using G Power software version 3.1.9.7. The calculation was based on a two-tailed test, with an effect size of 3.9, a significance level (α) of 0.05, and a statistical power (1 − β) of 0.8. […] The minimum required sample size for the biodistribution study in A549 and U-87 MG co-implantation mice was also calculated to be four animals per group (effect size = 2.5, α = 0.05, 1 − β = 0.8). To guarantee objective results, the experiment was carried out in a blinded manner. Specifically, drug administration and radioactivity measurements were conducted by different investigators to eliminate potential bias.

[2] = Octanol–water distribution coefficient (log D); assay type: physicochemical; conditions: shake-flask 1-octanol/PBS(–) pH 7.4, 1.0 mL each (1:1), 40 kBq, vortexed 2 min, centrifuged 5000 rpm 5 min, radioactivity by γ-counter, mean of n = 4
Procedure: For log D determination, [^125I]bcRGD, [^125I]bcRGDpal, [^125I]bcRGDiba, or [^125I]bcRGDdimer (40 kBq) was dissolved in 1.0 mL PBS(–) (pH 7.4) and mixed with 1.0 mL 1-octanol (1:1, v/v). The mixture was vortexed for 2 min and centrifuged at 5000 rpm for 5 min. Radioactivity in 0.5 mL of each phase was measured using a γ-counter, and log D values were calculated based on the radioactivity distribution (n = 4).

[3] = Albumin binding, size-exclusion spin column elution after incubation with mouse plasma; assay type: in vitro ADME; conditions: 37 kBq in 50 μL PBS(–) incubated 37 °C 10 min with 200 μL mouse plasma (male ddY); Sephadex G-50 Fine spin column, 2000 rpm 2 min; γ-counter; eluted/added radioactivity × 100
Procedure: To assess albumin binding, mouse plasma was obtained by centrifugation of whole blood from male ddY mice (9 weeks old). [^125I]bcRGD, [^125I]bcRGDpal, [^125I]bcRGDiba, or [^125I]bcRGDdimer (37 kBq) in 50 μL PBS(–) was incubated at 37 °C for 10 min with 200 μL of PBS(–), mouse plasma, or human serum albumin (HSA, 45 mg/mL in PBS(–); Wako Pure Chemical Industries, Osaka, Japan). The mixtures were applied to gel filtration spin columns (Sephadex G-50 Fine; Cytiva, Tokyo, Japan), centrifuged (2000 rpm, 2 min), and radioactivity in the eluted fraction was measured with a γ-counter. The high molecular weight fraction was calculated as the elution ratio = (radioactivity in elution)/(added radioactivity) × 100 (%).

integrin αVβ3 / αVβ5 = conditions: cited from earlier work
Excerpt: A radiolabeled probe based on this bicyclic peptide, [^125I]bcRGD, was synthesized and shown to selectively accumulate in αVβ3-expressing cancer cells and xenograft models in mice. However, like many l ...

human serum albumin = biological target: T1, human serum albumin (human, UniProt P02768 25-609); assay: SEC; [^125I]-peptide (37 kBq in 50 μL PBS(-)) with 200 μL HSA (45 mg/mL in PBS(-)), 37 °C, 10 min; Sephadex G-50 Fine gel filtration spin column, 2000 rpm, 2 min; radioactivity in the eluted high molecular weight fraction as % of that added; conditions: both partners purified
T1 construct: human serum albumin, 45 mg/mL in PBS(-); also called HSA; source: bought: Wako Pure Chemical Industries

Molecule	αVβ3/αVβ5 selectivity ratio (ratio of corresponding IC50 values) (integrin αVβ3 / αVβ5)	elution ratio (high molecular weight fraction) with HSA (human serum albumin)	further results
CC(=O)N[C@@H](CCCCNC(=O)c1cccc(I)c1)C(=O)N1CCC[C@H]1C(=O)N1CCC[C@H]1C(=O)N1CCC[C@H]1C(=O)N[C@@H](CO)C(=O)NCC(=O)Nc1ccc(C(=O)N[C@@H](CO)C(=O)NCC(=O)N[C@H]2CSCc3cc4cc(c3)CSC[C@@H](NC(=O)[C@H](CCC(N)=O)NC(=O)[C@@H]3CCCN3C(=O)[C@H](Cc3c[nH]cn3)NC2=O)C(=O)N[C@@H](CCCNC(=N)N)C(=O)NCC(=O)N[C@@H](CC(=O)O)C(=O)N[C@@H](C(N)=O)CSC4)cc1 [[^125I]bcRGD, reference compound] (Ac-K(Benzoyl(3-I))PPPSG[4Abz]SGCHPQ[dC]RGD[dC]-NH2; linker 10-14-18 via TBMB)			tissue uptake at 2 h ([1]; U-87 MG tumor, read-out: Tumor-accumulated radioactivity (U-87 MG)): 0.7 %ID/g; tissue uptake at 2 h ([1]; blood, read-out: Blood radioactivity level): 0.3 %ID/g; logD [2]: -2.02; Elution rate from size-exclusion resin (high molecular weight fraction), mouse plasma [3]: 2%
cilengitide	4.7		
cyclo-(RGDfK)	0.2		
B1		80%	
B2		60%	
